# “Also recorded” adds a separate entry of the source.
# Assays:
# 129S6/SvEvTac mice [1] = assay: Novelty suppressed feeding (NSF) in SD experiments; assay type: in vivo
# Method: (§1) Testing was performed as previously described (A13). Briefly, the testing apparatus consisted of a plastic box (50×50×20 cm). The floor was covered with approximately 2 cm of wooden bedding and the arena was brightly lit (1100-1200 lux). For 129S6/SvEv experiments, mice were food restricted for 12 h. For the C57BL/6N experiments, mice were food restricted for 24 h. All food was removed from the home cage. At the time of testing, a single pellet of food (regular chow) was placed on a white paper platform positioned in the center of the box. Each animal was placed in a corner of the box, and a stopwatch was immediately started. The latency of the mice to begin eating was recorded. Immediately after the latency was recorded, the food pellet was removed from the arena. The mice were then placed into a cage and the amount of food consumed in 5 min was measured (home cage consumption), followed by an assessment of post-restriction weight. We used the Kaplan-Meier survival analysis due to the lack of normal distribution of data. The Mantel-Cox log-rank test was used to evaluate differences between the experimental groups.
# 129S6/SvEvTac mice [2] = assay: Fighting behavior during SD bouts; assay type: in vivo; conditions: for latency of the CD-1 to attack the 129S6/SvEv mouse: vs SD-Sal
# Method: Adult aggressor CD-1 male mice were single-housed in Macrolon® polycarbonate resin cages (15.25 in×7.8 in×9.5 in) (Animal Care Systems, Inc., Centennial, Colo.). Male 129S6/SvEvTac mice (9 weeks of age) were subsequently placed into the resident. CD-1 mouse's cage. Three antagonistic encounters were allowed between the CD-1 mouse and the intruder. Each of these encounters typically lasted less than 5 min. Following the encounters, mice were separated by a polished stainless steel cage divider (Animal Care Systems, Inc., Centennial, Colo., P/N C79171), which allowed for olfactory and auditory communication, but limited visual or tactile contact. The partition was removed daily for 2 weeks and 3 antagonistic encounters were allowed between the mice each day. This procedure consistently yielded a submissive phenotype in the experimental intruder mice. Control (Ctrl) mice were group housed 4 to 5 per cage in Macrolon® polycarbonate resin cages without dividers.
# [3] = Body weight loss before NSF in SD experiments; assay type: in vivo; conditions: SD mice; ketamine after SD; vs saline
# Method: as §1
# C57BL/6NTac mice [4] = assay: Sucrose splash test (ST) in CORT model; assay type: in vivo; conditions: ketamine 90 mg kg^−1 or fluoxetine, before CORT
# Method: (§2) Experiment 5 (Pre-ketamine and pre-fluoxetine corticosterone (CORT)): C57BL16NTac mice were injected with ketamine (10, 30, 90 mg kg^−1, i.p.) 1 week before the start of CORT, or administered fluoxetine (18 mg kg^−1 per day) in the drinking water for 3 weeks before the start of CORT. Ketamine was purchased from Merial (100 mg/ml stock solution). Fluoxetine hydrochloride (160 μg/mL, equivalent to 18 mg kg^−1 per day in the drinking water) was purchased from Anawa Trading (Zurich, Switzerland) and dissolved in 0.45% hydroxypropyl-β-cyclodextrin (β-CD) (Sigma-Aldrich, Saint-Quentin Fallavier, France) solution. Following ketamine or fluoxetine treatment, CORT was administered for 3 weeks in the drinking water. CORT (4-pregnen-11b-DIOL-3 20-DIONE 21-hemisuccinate) (35 μg/ml) from. Sigma Aldrich (Saint-Quentin Fallavier, France) was dissolved in vehicle (0.45% β-CD). Control animals received vehicle (0.45% β-CD) throughout the duration of the experiment.
# This test consisted of squirting 200 μl of a 10% sucrose solution on the mouse's snout. The grooming duration was quantified using Stopwatch+ (Center for Behavioral Neuroscience, Georgia State University).
# C57BL/6NTac mice [5] = assay: EPM in CORT model; assay type: in vivo; conditions: ketamine or fluoxetine before CORT
# Method: as §2
# Testing was performed as previously described (A14). […] For the 12956/SvEv experiments, videos were scored using behavioral tracking software (TopScan, CleverSys, Reston, Va.). For the C57BL/6Ntac experiments, all parameters were measured using a videotracker (EPM3C. Bioseb, Vitrolles, France).
# [6] = Body weight in CORT model; assay type: in vivo, mice; conditions: ketamine 90 mg kg^−1 single injection or fluoxetine 18 mg kg^−1 for 3 weeks, before CORT
# animals = conditions: in vivo, ip; cited from earlier work
smiles,measurement,setting,value
"CNC1(c2ccccc2Cl)CCCCC1=O (racemic) [ketamine, (RS)-2-(2-chlorophenyl)-2-(methylamino)cyclohexanone]",latency to eat in NSF,"129S6/SvEvTac mice [1]; Ctrl mice, ketamine in post-SD design, vs saline",decreased the latency to eat; also recorded: significantly decreased the latency to approach the food pellet
same,latency to eat in NSF,"129S6/SvEvTac mice [1]; SD mice, ketamine after SD, vs SD-Sal",abolished; also recorded: did not differ from one another
same,latency to feed in NSF,129S6/SvEvTac mice [1]; ketamine 30 mg kg^−1 before SD,no significant effect
same,average immobility during week 2 of SD bouts,129S6/SvEvTac mice [2]; SD-K vs SD-Sal,significantly decreased; also recorded: significantly altered
same,average immobility time during week 1 of SD bouts,129S6/SvEvTac mice [2]; all groups,not significantly different
same,latency of the CD-1 to attack the 129S6/SvEv mouse,"129S6/SvEvTac mice [2]; ketamine 30 mg kg^−1, at the start of SD",significantly later; also recorded: only differed
same,latency of the CD-1 to attack the 129S6/SvEv mouse,129S6/SvEvTac mice [2]; ketamine 10 or 90 mg kg^−1,comparably attacked
same,percentage of weight loss,[3],lessened the percentage of weight loss; also recorded: attenuated this weight loss
same,latency to groom in the ST (chronic CORT-induced depressive-like phenotype),C57BL/6NTac mice [4],prevented the chronic CORT-induced depressive-like phenotype; also recorded: decreased the latency to groom
same,time in the closed arms of EPM (anxiety-like phenotype),C57BL/6NTac mice [5],Neither ketamine nor fluoxetine robustly protected
same,CORT-induced increase in body weight,[6],prevented the CORT-induced increase in body weight
same,reaction time to the hot plate test,animals,increased reaction time to the hot plate test

# From US11110070B2 (priority 2015, dated 2021)
